Our source for the EC50 and change in vivo values is patent US20240124408A1 (Sanofi, priority 2020, published 2024).

Each structure is given as a SMILES string. Where two headings read alike, the source gives them in different places.

Test [1] addresses T1, human TRPM8 (Homo sapiens, UniProt Q7Z2W7).
T1 construct: expressed in transfected cells; host or cells: CHO (p658 mammalian expression vector)
Nature of the test: In vitro human TRPM8 fluorescence calcium flux assay (recombinant CHO cells, Fluo4-AM, FDSS6000). In kind it is cell-based. To be noted: recombinant CHO cells expressing human TRPM8; menthol-related EC50, normalized to 100 μM menthol. In outline:
(§1)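 Agonist EC50 values come from sixteen-point dose responses normalized to the 100 μM menthol maximum, fitted sigmoidally. Calcium rise was followed for 3 min post-addition in recombinant CHO lines (human or pig TRPM8). Cells were dye-loaded with 2 μM Fluo4-AM, 1 h at room temperature, probenecid-containing HBSS.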
Background: A change in cytosolic calcium serves as a functional read-out for many receptors and channels.

Test [2] deals with Male castrated German Landrace pigs. Nature of the test: In vivo assay: enhancement of swallowing in anesthetized pigs (manometry with pressure probe in the mouth). To be noted: Sus scrofa, anesthetized pig, dose per pig 10 mg, injected in 1 ml vehicle into the oral cavity. The protocol: For testing the efficacy of TRPM8 agonists for enhancing swallowing, experiment using the pig model can be conducted according to assay described below. The efficacy can be compared to a vehicle control.
Male castrated German Landrace pigs (weight range of 20 to 35 kg) were used. Anesthesia was induced by injecting 20 ml of a urethane solution (20 g/100 mL dissolved in saline) into an ear vein corresponding to a dose of around […]. Anesthesia was maintained by continuous infusion of 15-20 mL per hour of the urethane solution, which was infused into an epigastric vein, and additionally by infusion of Zoletil and Rompun (500 mg Zoletil is disssovled in 10 ml of Rompun 2%, then diluted 1:10 with saline and 3-5 mL per hour of this diluted solution. Bupivacain 0.5% JENAPHARM@ was injected for additional infiltration anesthesia. Anesthesia was monitored via pulsoximetry (ear) and regular reflex testing for pain. Body temperature was monitored and maintained by an infrared lamp.
Preparation of pigs: Swallowing responses were assessed by manometry with a pressure probe placed into the mouth of the pig. The pressure probe consisted of a plastic tube (diameter 3.3 mm) to which a small balloon was attached. The tube was advanced about 12-14 cm into the mouth related to the snout. The balloon was then inflated with air to yield a pressure of 20-30mbar (vehicle). Ideally a swallowing response with 1 ml of fluid raised this pressure by 20-50mbar which was then referred to as the swallowing pressure (the increment of this pre-set pressure in the inflated balloon after swallowing) to be further enhanced by an effective test drug.
The free end of the tube was connected to a differential pressure transducer MPX Type 399/2 (Hugo Sachs Elektronik-Harvard Apparatus) and a Hugo Sachs Plugsys-amplifier system. The biological signals were recorded by a Hugo Sachs Plugsys-amplifier system and continuously stored on a computer hard disk by an on line data acquisition and analysis system (Hem 4.2 Notocord Systems, Croissy-sur-Seine, France).
A second tube referred to as injection tube was placed dorsally to the manometer tube to enable the administration of the vehicle that induced the baseline swallowing activity, or of this same vehicle containing the test compound.
Induction and assessment of swallowing activity: 0.5h after anesthesia induction 1 ml of a fluid or the vehicle for the test drug was injected into the injection tube placed into the oral cavity. The number of swallows was counted and the highest-pressure increment was registered. Challenges with vehicle were repeated at intervals of 30 min until two consecutive vehicle challenges show an about equal swallowing response. The next challenge was the vehicle loaded with the test drug (otherwise same procedure). The efficacy of a compound to enhance swallowing as shown in Table 7 was expressed as the % increase in pressure and frequency of swallowing after administration of the compound compared to the pressure and frequency recorded for its vehicle administered just before.

Test [3] deals with T1, human TRPM8. Nature of the test: In vitro human TRPM8 automated patch-clamp assay (SyncroPatch 384PE, CHO cells). In kind it is cell-based. To be noted: CHO cells expressing human TRPM8, 28° C. In outline:
(§2)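 Whole-cell automated patch clamp on engineered CHO lines at 28 °C, held at −60 mV, with −80 to +80 mV ramps every 5 s; one compound concentration per well. Peak current minus pre-addition baseline was normalised to no-compound control and Emax, and EC50 was fitted; 200 μM menthol wells served as control.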
In general terms: Patch clamp records ionic current or voltage across a cell membrane.

The target in test [4] is T2, pig TRPM8 (Sus scrofa, UniProt F1SM15).
T2 construct: expressed in transfected cells; host or cells: CHO (pcDNA5/FRT/TO vector; hygromycin B and blasticidin selection)
Nature of the test: In vitro pig TRPM8 automated patch-clamp assay (SyncroPatch 384PE, CHO cells). It counts as cell-based. Particulars: CHO cells expressing pig TRPM8, 28° C. The essentials:
as §2

Test [5] concerns the target T2, pig TRPM8. Nature of the test: In vitro pig TRPM8 fluorescence calcium flux assay (recombinant CHO cells, Fluo4-AM, FDSS6000). It counts as cell-based. To be noted: recombinant CHO cells expressing pig TRPM8; menthol-related EC50, normalized to 100 μM menthol. The essentials: as §1
Setting [6] is: frequency of swallowing compared with vehicle administered just before, read-out: % increase frequence vs vehicle.
[7] abbreviates: swallowing pressure compared with vehicle administered just before, read-out: % increase pressure vs vehicle.

T1 sequence (Q7Z2W7 whole entry): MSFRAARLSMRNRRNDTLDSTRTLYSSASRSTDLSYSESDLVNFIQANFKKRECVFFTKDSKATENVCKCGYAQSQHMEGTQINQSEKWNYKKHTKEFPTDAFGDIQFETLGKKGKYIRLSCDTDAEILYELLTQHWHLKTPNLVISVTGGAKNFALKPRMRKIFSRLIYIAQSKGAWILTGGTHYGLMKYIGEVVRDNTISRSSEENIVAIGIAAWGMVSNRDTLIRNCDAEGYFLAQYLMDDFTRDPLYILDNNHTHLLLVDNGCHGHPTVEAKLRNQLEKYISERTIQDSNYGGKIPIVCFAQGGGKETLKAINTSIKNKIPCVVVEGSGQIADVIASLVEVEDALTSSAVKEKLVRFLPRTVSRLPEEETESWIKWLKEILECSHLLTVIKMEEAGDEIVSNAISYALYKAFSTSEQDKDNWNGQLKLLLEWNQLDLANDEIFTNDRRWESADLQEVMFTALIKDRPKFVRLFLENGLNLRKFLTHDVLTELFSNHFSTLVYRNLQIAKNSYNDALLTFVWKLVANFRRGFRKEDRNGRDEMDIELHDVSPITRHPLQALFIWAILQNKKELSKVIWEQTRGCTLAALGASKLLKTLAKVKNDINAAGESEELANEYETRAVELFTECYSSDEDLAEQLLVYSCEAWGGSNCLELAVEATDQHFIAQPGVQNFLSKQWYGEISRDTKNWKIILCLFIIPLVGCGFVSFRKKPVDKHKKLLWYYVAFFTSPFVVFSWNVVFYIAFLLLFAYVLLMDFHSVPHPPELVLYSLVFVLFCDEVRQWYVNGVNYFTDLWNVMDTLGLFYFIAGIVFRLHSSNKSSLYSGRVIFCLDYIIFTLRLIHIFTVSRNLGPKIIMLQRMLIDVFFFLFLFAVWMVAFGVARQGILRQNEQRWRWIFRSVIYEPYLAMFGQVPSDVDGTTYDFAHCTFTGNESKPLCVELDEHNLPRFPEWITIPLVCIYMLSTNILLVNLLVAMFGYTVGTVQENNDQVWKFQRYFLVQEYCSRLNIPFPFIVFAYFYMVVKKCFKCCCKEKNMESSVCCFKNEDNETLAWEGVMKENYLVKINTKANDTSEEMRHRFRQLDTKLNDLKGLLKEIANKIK
T2 sequence (F1SM15 1-1104): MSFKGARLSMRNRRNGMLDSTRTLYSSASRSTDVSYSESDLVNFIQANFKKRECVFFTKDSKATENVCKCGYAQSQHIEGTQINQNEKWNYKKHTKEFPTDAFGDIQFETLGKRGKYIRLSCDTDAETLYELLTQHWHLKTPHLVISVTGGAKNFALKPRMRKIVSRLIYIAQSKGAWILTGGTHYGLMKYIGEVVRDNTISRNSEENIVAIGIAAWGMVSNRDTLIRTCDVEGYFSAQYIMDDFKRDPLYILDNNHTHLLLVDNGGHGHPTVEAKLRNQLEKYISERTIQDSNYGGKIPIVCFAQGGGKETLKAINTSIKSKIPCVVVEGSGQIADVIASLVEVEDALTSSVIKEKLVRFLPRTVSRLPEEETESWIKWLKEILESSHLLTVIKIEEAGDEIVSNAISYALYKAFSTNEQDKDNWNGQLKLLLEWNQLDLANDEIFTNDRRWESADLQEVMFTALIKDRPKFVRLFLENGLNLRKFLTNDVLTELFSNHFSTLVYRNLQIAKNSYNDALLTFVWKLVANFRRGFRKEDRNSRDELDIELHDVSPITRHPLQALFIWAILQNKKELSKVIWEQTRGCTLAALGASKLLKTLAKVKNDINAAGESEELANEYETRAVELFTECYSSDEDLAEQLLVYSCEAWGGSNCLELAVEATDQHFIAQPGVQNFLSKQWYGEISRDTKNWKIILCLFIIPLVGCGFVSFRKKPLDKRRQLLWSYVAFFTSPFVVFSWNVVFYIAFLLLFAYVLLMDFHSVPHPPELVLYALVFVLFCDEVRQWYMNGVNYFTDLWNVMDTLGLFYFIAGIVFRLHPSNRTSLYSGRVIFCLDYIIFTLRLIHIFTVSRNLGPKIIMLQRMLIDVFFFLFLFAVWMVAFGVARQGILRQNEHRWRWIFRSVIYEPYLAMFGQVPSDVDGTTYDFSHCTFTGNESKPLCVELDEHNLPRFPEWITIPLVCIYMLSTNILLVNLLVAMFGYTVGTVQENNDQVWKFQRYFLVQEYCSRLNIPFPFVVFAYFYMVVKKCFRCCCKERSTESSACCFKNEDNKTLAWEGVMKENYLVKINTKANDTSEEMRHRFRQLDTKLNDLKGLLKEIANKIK

What is called EC50 is the concentration at which the effect is half-maximal. In the case of `CC(C)[C@@H]1CC[C@@H](C)C[C@@]1(O)C(=O)NCC1(c2ccccc2)COC1` [Example 31, (1S,2S,5R)-1-hydroxy-2-isopropyl-5-methyl-N-((3-phenyloxetan-3-yl)methyl)cyclohexane-1-carboxamide], the EC50 was found to be 10.4 nM on human TRPM8 [1], 2080 nM on human TRPM8 [3], 3150 nM on pig TRPM8 [4] and 9.3 nM on pig TRPM8 [5]. The results for the change in vivo at 10 mg in test [2] (setting [6]) and in test [2] (setting [7]) were 119% and 253%, respectively.
As for `CC(C)OC(=O)CNC(=O)[C@]1(O)C[C@H](C)CC[C@H]1C(C)C` [Example 54, isopropyl ((1S,2S,5R)-1-hydroxy-2-isopropyl-5-methylcyclohexane-1-carbonyl)glycinate], the EC50 at human TRPM8 [1] was found to be 226 nM; at human TRPM8 [3], 5650 nM; on pig TRPM8 [4], 8730 nM; on pig TRPM8 [5] it was 91.1 nM. Also, the results for the change in vivo at 10 mg in test [2] (setting [6]) and in test [2] (setting [7]) were 75% and 64%, respectively.
As for `CC(C)[C@@H]1CC[C@@H](C)C[C@@]1(O)C(=O)NC[C@@H](NC(=O)[C@H](C)N)c1ccccc1` [Example 63, (1S,2S,5R)—N—((S)-2-((S)-2-aminopropanamido)-2-phenylethyl)-1-hydroxy-2-isopropyl-5-methylcyclohexane-1-carboxamide], the EC50 worked out at 2.6 nM on human TRPM8 [1], 53 nM at human TRPM8 [3], 57 nM at pig TRPM8 [4] and 5.7 nM on pig TRPM8 [5]. In addition, the change in vivo at 10 mg came out at 191% in test [2] (setting [6]) and 186% in test [2] (setting [7]).
With `CC(C)[C@@H]1CC[C@@H](C)C[C@@]1(O)C(=O)NCCc1ccccc1` [Example 51, (1S,2S,5R)-1-hydroxy-2-isopropyl-5-methyl-N-phenethylcyclohexane-1-carboxamide], the EC50 on human TRPM8 [1] was determined as 7.8 nM; at human TRPM8 [3] it was 3030 nM; on pig TRPM8 [4] it was 823 nM; on pig TRPM8 [5], 4.5 nM. The change in vivo at 10 mg in test [2] (setting [6]) is 250%; in test [2] (setting [7]), 186%.
On to `CC(C)[C@@H]1CC[C@@H](C)C[C@@]1(O)C(=O)NCCc1ccccc1CO` [Example 14, (1S,2S,5R)-1-hydroxy-N-(2-(hydroxymethyl)phenethyl)-2-isopropyl-5-methylcyclohexane-1-carboxamide], for which the concentration giving a half-maximal response (EC50) at human TRPM8 [1] was found to be 10.3 nM; on human TRPM8 [3], 2720 nM; at pig TRPM8 [4] it was 3300 nM; on pig TRPM8 [5] it was 6.7 nM. In addition, the figures for the change in vivo at 10 mg in test [2] (setting [6]) and in test [2] (setting [7]) were 62% and 73%, respectively.
For `CC(C)[C@@H]1CC[C@@H](C)C[C@@]1(O)C(=O)NCCc1ccccc1OCCCO` [Example 80, (1S,2S,5R)-1-hydroxy-N-(2-(3-hydroxypropoxy)phenethyl)-2-isopropyl-5-methylcyclohexane-1-carboxamide], the EC50 was found to be 40.2 nM on human TRPM8 [1], 1800 nM on human TRPM8 [3], 3970 nM at pig TRPM8 [4] and 82 nM on pig TRPM8 [5]. The change in vivo at 10 mg in test [2] (setting [6]) was determined as 91%; in test [2] (setting [7]) it was 86%.
